Measured values: PubChem BioAssay AID248 (DTP/NCI, 2004)
“And” between values parts separate entries of the source, which are not always exact repeats. Identical values can stand only once. Inconclusive results and toxic doses are left out. Rule as the data show it: active = T/C of 150% or more; inactive = T/C below 125%.

Tested on: L1210 leukemia ip in BDF1 mice, survival T/C
Assay: NCI In Vivo Anticancer Drug Screen. Data for tumor model L1210 Leukemia (intraperitoneal) in B6D2F1 (BDF1) mice
Conditions: endpoint: mean survival time, higher = longer survival
In short: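 Tumor cells were implanted, animals were treated, and survival was followed. The result divides the treated measurement by the vehicle-control measurement.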

[1] = dose: 100.0 mg/kg/injection, schedule: Q04DX003 (ip), vehicle: Klucel (hydroxypropylcellulose) (HPC)
[2] = dose: 200.0 mg/kg/injection, schedule: Q04DX003 (ip), vehicle: Klucel (hydroxypropylcellulose) (HPC)
[3] = dose: 400.0 mg/kg/injection, schedule: Q04DX003 (ip), vehicle: Klucel (hydroxypropylcellulose) (HPC)
[4] = dose: 50.0 mg/kg/injection, schedule: Q01DX001 (ip), vehicle: saline
[5] = dose: 100.0 mg/kg/injection, schedule: Q01DX001 (ip), vehicle: saline
[6] = dose: 200.0 mg/kg/injection, schedule: Q01DX001 (ip), vehicle: saline
[7] = dose: 100.0 mg/kg/injection, schedule: Q01DX009 (ip), vehicle: saline with Tween-80
[8] = dose: 100.0 mg/kg/injection, schedule: Q04DX002 (ip), vehicle: saline with Tween-80
[9] = dose: 200.0 mg/kg/injection, schedule: Q01DX009 (ip), vehicle: saline with Tween-80
[10] = dose: 200.0 mg/kg/injection, schedule: Q04DX002 (ip), vehicle: saline with Tween-80
[11] = dose: 200.0 mg/kg/injection, schedule: Q04DX003 (ip), vehicle: saline with Tween-80
[12] = dose: 400.0 mg/kg/injection, schedule: Q01DX009 (ip), vehicle: saline with Tween-80
[13] = dose: 400.0 mg/kg/injection, schedule: Q04DX002 (ip), vehicle: saline with Tween-80
[14] = dose: 400.0 mg/kg/injection, schedule: Q04DX003 (ip), vehicle: saline with Tween-80

Measured: T/C

Cc1ccc(NC(=O)c2ccc(Cl)cc2)cc1Cl
inactive: dose: 100.0 mg/kg/injection, schedule: Q01DX009 (ip), vehicle: Klucel (hydroxypropylcellulose) (HPC) 105 % of control | [1] 94 % of control | dose: 200.0 mg/kg/injection, schedule: Q01DX009 (ip), vehicle: Klucel (hydroxypropylcellulose) (HPC) 98 % of control | [2] 94 % of control | dose: 400.0 mg/kg/injection, schedule: Q01DX009 (ip), vehicle: Klucel (hydroxypropylcellulose) (HPC) 92 % of control | [3] 104 % of control

CCCC1C2C(=O)N(c3ccccc3)C(=O)C2ON1c1ccccc1 (configuration not stated)
inactive: [4] 104 % of control | [5] 98 % of control | [6] 101 % of control | dose: 400.0 mg/kg/injection, schedule: Q01DX001 (ip), vehicle: saline 106 % of control

C/C(=N\N)C(=O)c1ccccc1
inactive: dose: 100.0 mg/kg/injection, schedule: Q01DX001 (ip), vehicle: Klucel (hydroxypropylcellulose) (HPC) 103 % of control | [1] 98 % of control | dose: 200.0 mg/kg/injection, schedule: Q01DX001 (ip), vehicle: Klucel (hydroxypropylcellulose) (HPC) 93 % of control | [2] 94 % of control | dose: 400.0 mg/kg/injection, schedule: Q01DX001 (ip), vehicle: Klucel (hydroxypropylcellulose) (HPC) 101 % of control | [3] 96 % of control

CCOC(=O)c1ccc(NC(=O)Nc2ccccc2OC)cc1
inactive: dose: 100.0 mg/kg/injection, schedule: Q01DX001 (ip), vehicle: saline with Tween-80 89 % of control | [7] 92 % of control | [8] 94 % of control and 87 % of control | dose: 200.0 mg/kg/injection, schedule: Q01DX001 (ip), vehicle: saline with Tween-80 92 % of control | [9] 95 % of control | [10] 87 % of control and 91 % of control | [11] 87 % of control | dose: 400.0 mg/kg/injection, schedule: Q01DX001 (ip), vehicle: saline with Tween-80 86 % of control | [12] 87 % of control | [13] 87 % of control | [14] 92 % of control

O=C(O)c1ccccc1C(=O)NC(Cc1cnc[nH]1)C(=O)O (configuration not stated)
inactive: [7] 96 % of control | dose: 100.0 mg/kg/injection, schedule: Q04DX003 (ip), vehicle: saline with Tween-80 102 % of control | [9] 100 % of control | [11] 102 % of control | [12] 94 % of control | [14] 91 % of control

CCc1nc(C#N)c(N)o1
inactive: dose: 5.0 mg/kg/injection, schedule: Q01DX001 (ip), vehicle: saline 98 % of control | dose: 10.0 mg/kg/injection, schedule: Q01DX001 (ip), vehicle: saline 103 % of control | dose: 20.0 mg/kg/injection, schedule: Q01DX001 (ip), vehicle: saline 97 % of control | dose: 40.0 mg/kg/injection, schedule: Q01DX001 (ip), vehicle: saline 95 % of control | dose: 80.0 mg/kg/injection, schedule: Q01DX001 (ip), vehicle: saline 98 % of control

COC(=O)COc1c(C)cc(Cl)cc1Cl
inactive: [8] 96 % of control | [10] 86 % of control | [13] 98 % of control

BrC#CC1CCCCC1
inactive: dose: 100.0 mg/kg/injection, schedule: Q04DX003 (ip), vehicle: saline 100 % of control | dose: 200.0 mg/kg/injection, schedule: Q04DX003 (ip), vehicle: saline 100 % of control

CCC1C(=O)OCc2c1cc1n(c2=O)CCC1 (configuration not stated)
inactive: dose: 25.0 mg/kg/injection, schedule: Q01DX001 (ip), vehicle: saline 113 % of control | [4] 104 % of control | [5] 104 % of control | [6] 115 % of control
